Measurements from patent US9340543B2, “Helquat derivatives, preparation thereof, and use thereof as medicaments” (USTAV ORGANICKE CHEMIE A BIOCHEMIE AKADEMIE VED CR, V.V.I., priority 2013, dated 2016).

Columns and labels:
[1] = system: CCRF-CEM; experiment: CellTiter-Glo luminescent cell viability assay (ATP quantification), CCRF-CEM; format: cell-based; details: acute lymphoblastic leukemia cells, 72 h treatment, viable cells by ATP luminescence
Protocol: (§1) Influence of the test compounds on viability (proliferation) of cell lines used was investigated in concentration range 0-100 μmol·l^−1.
Suspension cell line CCRF-CEM is a permanent in vitro culture of acute lymphoblastic leukemia. CCRF-CEM cell line was cultivated in RPMI 1640 medium (Sigma-Aldrich, cat. no. R8758) with addition of 2 mmol·l^−1 glutamine (Invitrogen, cat. no. 35050-038), 10% fetal bovine serum (FBS, Sigma-Aldrich, cat. no. F9665), 100 IU/ml peniciline, 100 μg/ml streptomycine (Sigma-Aldrich, cat. no. P0781). Passaging was performed 2-3× a week. Population doubling time of CCRF-CEM cell line was 20 h under the cultivation conditions used.
(§2) In order to test the sensitivity of the cell lines towards the studied helquats, cytotoxity test for cell viability assessment based on ATP quantification in cell lysates was used (CellTiter-Glo® Luminescent Cell Viability Assay, Promega, cat. no. G7571). In this test, ATP in cell lysates is detected using luciferase reaction. Luminescence intensity correlates with the ATP level and thus with quantity of metabolically active (viable) cells. IC50 value serves as the output, that is the concentration of the test compound which leads to 50% reduction in number of viable cells as compared to control, untreated population. To this end, IC50 value reflects efficiency of the test compound with regard to the given cell line.
(§3) Cells in the exponential growth phase were seeded into a 96-well microtiter plate were plated at 3000 cells per well. Each well contained 90 μl of cell suspension. The next day, 10 μl of 10× concentrated test compound solutions were added. The effect of helquats was investigated in concentration range 1 to 100 μmol·l^−1 (e.g. 1; 2.5; 5; 7.5; 10; 15; 25; 50 and 100 μmol·l^−1). Apart from the section containing the concentration series of the test compound, each well contained 2 control columns, the first with pure medium (so called blank) and the second with cells in medium without the test compounds (control). Into wells containing controls and blanks, volume of solvent (water) equal to the volume of added compound solutions was added. After 72 h of incubation with the test compounds viability was determined according to the manufacturer's instructions. In short: microtiter well plate was left 30 min to reach the room temperature after it has been removed from the incubator. Then, into each well, 100 μl of the prepared detection agent was added. Next, the well plate was shaken for 2 min to complete the full lysis. Next, after the well had been left in the dark for 15 min, the luminescence was measured in each well using luminometer (Tecan Genios, Austria).
(§4) IC50 value represents concentration of the test compound, which leads to 50% reduction of viable cells (inhibition of cell growth) after 72 h of the treatment. Each helquat concentration was tested in triplicates in a IC50 quantification and at least 3 independent IC50 quantification experiments were performed. IC50 values over 100 μmol·l^−1 were obtained by extrapolation of data measured in concentration range 0-100 μmol·l^−1 for the given helquat.

[2] = system: MOLT-4; experiment: CellTiter-Glo luminescent cell viability assay (ATP quantification), MOLT-4; format: cell-based; details: acute lymfoblastic leukemia cells, 72 h treatment, viable cells by ATP luminescence
Protocol: as §1
(§5) Suspension cell line MOLT-4 is a permanent in vitro culture of acute lymfoblastic leukemia. Linie MOLT-4 cell line was cultivated in RPMI 1640 medium (Sigma-Aldrich, see above) with addition of 2 mmol glutamine (Invitrogen, see above), 10% fetal bovine serum (FBS, Sigma-Aldrich, see above), 100 IU/ml peniciline, 100 μg/ml streptomycine (Sigma-Aldrich, see above). Passaging was performed 2-3× a week. Population doubling time of MOLT-4 cell line was 25 h under the cultivation conditions used.
as §2, §3, §4

[3] = system: NHDF-Ad; experiment: CellTiter-Glo luminescent cell viability assay (ATP quantification), NHDF-Ad normal cells; format: cell-based; details: normal human dermal fibroblasts, 72 h treatment
Description: as §1
Normal human dermal fibroblasts were cultivated without antibiotics in basal medium for fibroblasts (ATCC/LGC Standards, cat. no. PCS-201-030) with added “Fibroblast Growth Kit-Low serum” (ATCC/LGC Standards, cat. no. PCS-201-041) containing 2% FBS, L-glutamine, hydrocortisone, ascorbic acid, rh FGF beta, rh insulin. When 90% confluency was reached the fibroblasts were washed with sterile PBS (5 ml) and dissociated by addition of 0.25% solution of trypsin/EDTA (2 ml; 2 min; 37° C.). After that 5 ml of cultivation medium for fibroblasts was added and the cells were centrifuged (180×g, 7 min), the cell pellet was resuspended, and transferred in the amount needed into a new cultivation bottle with fresh medium. The same cell release procedure was applied when the cells were to be used in experiments. The cells were used in experiments between the 3rd and the 15th passage after defreeezing. Population doubling time of NHDF-Ad cell line was 33 h under the cultivation conditions used.
as §2, §3, §4

[4] = system: HUVEC; experiment: CellTiter-Glo luminescent cell viability assay (ATP quantification), HUVEC normal cells; format: cell-based, human; details: 72 h treatment
Protocol: as §1
Normal human endothelial cells from umbilical vein are adherent cells cultivated in plastic Petri dishes coated with collagen I. Into the cultivation medium (E-STIM™; BD Biosciences, cat. co. 355054) already containing 2% FBS (fetal bovine serum), hydrocortisone and heparin the following two further ingredients were added: epidermal growth factor (EGF, 5 μg) and mixture of factors facilitating growth of endothelial cells (ECGS, 100 mg). […] The cells were passaged after reaching 90% confluency by dissociation using 0.25% solution of trypsin/EDTA (1 ml; 3 min; 37° C.). After that 5 ml of complete cultivation medium E-STIM™ was added and the cells were centrifuged (180×g, 7 min), the pellet was resuspended, and transferred in the amount needed into a new Petri dish with fresh medium. The cells were used in experiments between the 3rd and the 8th passage after defreezing. Population doubling time of HUVEC cell line was 38 h under the cultivation conditions used.
as §2, §3, §4

[5] = system: LoVo; experiment: CellTiter-Glo luminescent cell viability assay (ATP quantification), LoVo; format: cell-based; details: Homo sapiens, LoVo, colorectal carcinoma cells, 72 h treatment
Protocol: as §1
Adherent cell line LoVo is a permanent in vitro culture derived from tissue of a patient with colorectal carcinoma. LoVo cell line was cultivated in DMEM medium (Sigma-Aldrich, cat. no. D8437) with addition of 2 mmol·l^−1 glutamine (Invitrogen, see above), 10% fetal bovine serum (FBS, Sigma-Aldrich, see above), 100 IU/ml peniciline, 100 μg/ml streptomycine (Sigma-Aldrich, see above). Passaging was performed twice a week. After washing of cells with sterile PBS, the cells were released by 0.25% trypsin/EDTA (Sigma-Aldrich, see above) at 37° C. for 2 minutes. The trypsin was inactivated by addition of 2 volumes of complete medium, cells were then centrifuged (250×g, 5 min), resuspended, and transferred in the amount needed into a new cultivation bottle with fresh medium. Population doubling time of LoVo cell line was 39 h under the cultivation conditions used.
as §2, §3, §4

[6] = system: HeLa; experiment: CellTiter-Glo luminescent cell viability assay (ATP quantification), HeLa; format: cell-based; details: cervical cancer cells, 72 h treatment, viable cells by ATP luminescence
Protocol: as §1
Adherent cell line HeLa is a permanent in vitro culture derived from cervical cancer. HeLa cell line was cultivated in RPMI 1640 medium (Dutch modification) (Sigma-Aldrich, cat. no. R7638) with addition of 2 mmol·l^−1 glutamine (Invitrogen, see above), 10% fetal bovine serum (FBS, Sigma-Aldrich, see above), 100 IU/ml peniciline, 100 μg/ml streptomycine (Sigma-Aldrich, see above). Passaging was performed twice a week. After washing of cells with sterile PBS the cells were released by 0.25% trypsin/EDTA (Sigma-Aldrich, cat. no. T4049) at 37° C. for 2 minutes. The trypsin was inactivated by addition of 2 volumes of complete medium, cells were then centrifuged (250×g, 5 min), the cell pellet was resuspended, and transferred in the amount needed into a new cultivation bottle with fresh medium. Population doubling time of […] cell line was 25 h under the cultivation conditions used.
as §2, §3, §4

[7] = system: HL-60; experiment: CellTiter-Glo luminescent cell viability assay (ATP quantification), HL-60; format: cell-based; details: Homo sapiens, HL-60; acute promyelocytic leukemia cells, 72 h treatment, viable cells by ATP luminescence
Protocol: as §1
as §5, with “HL-60” for “MOLT-4”, “promyelocytic” for “lymfoblastic”, “HL-60” for “Linie MOLT-4”, “mmol·l^−1” for “mmol”, “23” for “25”
as §2, §3, §4

[8] = Fibroblast, viable cells by ATP luminescence, class symbols
[9] = HUVEC, normal human endothelial cells from umbilical vein, viable cells by ATP luminescence, class symbols
[10] = viable cells by ATP luminescence, class symbols
[11] = Fibroblast, numeric bound, values over 100 obtained by extrapolation of data measured at 0-100 μmol·l−1
[12] = HUVEC, normal human endothelial cells, numeric bound, values over 100 obtained by extrapolation of data measured at 0-100 μmol·l−1
[13] = numeric bound, values over 100 obtained by extrapolation of data measured at 0-100 μmol·l−1

SMILES | IC50 ([1]; Homo sapiens, CCRF-CEM) [µM] | IC50 ([2]; Homo sapiens, MOLT-4) [µM] | IC50 [5, 10] [µM] | IC50 ([6]; Homo sapiens, HeLa) [µM] | IC50 [7] [µM] | IC50 [5, 13] [µM] | IC50 [1] [µM] | IC50 [2] [µM] | IC50 [6] [µM] | IC50 [3, 8] [µM] | IC50 [4, 9] [µM] | IC50 [3, 11] [µM] | IC50 [4, 12] [µM] | IC50 [3, 10] [µM] | IC50 ([4]; normal human endothelial cells, numeric bound, values over 100 obtained by extrapolation of data measured at 0-100 μmol·l−1) [µM]
C(=C\c1cc[n+]2c(c1)-c1c(ccc3c1-c1c4ccccc4cc[n+]1CC3)CC2)/c1cc2c3c(c1)CCCN3CCC2 (racemic) [(rac)-20, (rac)-(E)-13-(2-(1,2,3,5,6,7-hexahydropyrido[3,2,1-ij]quinolin-9-yl)vinyl)-4,5,8,9-tetrahydroisoquinolino[2,1-k]pyrido[2,1-a][2,9]phenanthroline-3,10-diium trifluoromethanesulfonate] | 11 to 50 | 11 to 50 | 51 to 150 | 11 to 50 | – | – | – | – | – | 51 to 150 | 51 to 150 | – | – | – | –
COc1ccc2cc(/C=C/c3cc[n+]4c(c3)-c3c(c(C)c(C)c5c3-c3c6ccccc6cc[n+]3CC5)CC4)ccc2c1 (racemic) [(rac)-7, (rac)-(E)-13-(2-(6-methoxynaphthalene-2-yl)vinyl)-6,7-dimethyl-4,5,8,9-tetrahydroisoquinolino[1,2-a]pyrido[1,2-k][2,9]phenanthroline-3,10-diium trifluoromethanesulfonate] | < 10 | 11 to 50 | – | 11 to 50 | 11 to 50 | – | – | – | – | – | – | > 150 | > 150 | – | –
Cc1c(C)c2c(c3c1CC[n+]1ccc(/C=C/c4ccc(N(C)C)cc4)cc1-3)-c1c3ccccc3cc[n+]1CC2 (racemic) [(rac)-1, (rac)-(E)-13-(4-(dimethylamino)styryl)-6,7-dimethyl-4,5,8,9-tetrahydroiso-quinolino[1,2-a]pyrido[1,2-k][2,9]phenanthroline-3,10-diium trifluoromethanesulfonate] | 11 to 50 | 11 to 50 | – | 11 to 50 | – | – | – | – | – | 51 to 150 | – | – | > 150 | – | –
Cc1c(C)c2c(c3c1CC[n+]1ccc(/C=C/c4ccc(N(C)C)cc4)cc1-3)-c1c3ccccc3cc[n+]1CC2 [(P)-1, (P)-(E)-13-(4-(dimethylamino)styryl)-6,7-dimethyl-4,5,8,9-tetrahydroiso-quinolino[1,2-a]pyrido[1,2-k][2,9]phenanthroline-3,10-diium trifluoromethanesulfonate] | – | – | – | – | – | – | 11 to 50 | 11 to 50 | 11 to 50 | – | – | – | – | 51 to 150 | > 150

Continued, in another order:

IC50 ([1]; Homo sapiens, CCRF-CEM) [µM] | IC50 ([2]; Homo sapiens, MOLT-4) [µM] | IC50 [5, 10] [µM] | IC50 ([6]; Homo sapiens, HeLa) [µM] | IC50 [7] [µM] | IC50 [5, 13] [µM] | IC50 [1] [µM] | IC50 [2] [µM] | IC50 [6] [µM] | SMILES | IC50 [3, 8] [µM] | IC50 [4, 9] [µM] | IC50 [3, 11] [µM] | IC50 [4, 12] [µM] | IC50 [3, 10] [µM] | IC50 ([4]; normal human endothelial cells, numeric bound, values over 100 obtained by extrapolation of data measured at 0-100 μmol·l−1) [µM]
11 to 50 | 11 to 50 | 11 to 50 | 11 to 50 | – | – | – | – | – | CN(C)c1ccc(/C=C/c2cccc3[n+]2CCCc2ccc4c(c2-3)-c2cccc(/C=C/c3ccc(N(C)C)cc3)[n+]2CCC4)cc1 (racemic) [(rac)-41, (rac)-4,15-bis((E)-4-(dimethylamino)styryl)-6,7,8,11,12,13-hexahydro-dipyrido[1,2-a:1′,2′-a′]benzo[2,1-c:3,4-c′]bisazepinediium trifluoromethanesulfonate] | 51 to 150 | 51 to 150 | – | – | – | –
51 to 150 | 51 to 150 | – | 51 to 150 | – | > 150 | – | – | – | CN(C)c1ccc(/C=C/c2cc[n+]3c(c2)-c2c(ccc4c2-c2cccc[n+]2CCC4)CCC3)cc1 (racemic) [(rac)-35, (rac)-(E)-2-(4-(dimethylamino)styryl)-6,7,8,11,12,13-hexahydrodipyrido[1,2-a:1′,2′-a′]benzo[2,1-c:3,4-c′]bisazepinediium trifluoromethanesulfonate] | – | – | > 150 | > 150 | – | –
51 to 150 | 51 to 150 | – | 51 to 150 | – | > 150 | – | – | – | CN(C)c1ccc(/C=C/C=C/c2cc[n+]3c(c2)-c2c(ccc4c2-c2cccc[n+]2CC4)CC3)cc1 [compound 30, 2-((1E,3E)-4-(4-(dimethylamino)phenyl)buta-1,3-dien-1-yl)-6,7,10,11-tetrahydrodipyrido[2,1-a:1′,2′-k][2,9]phenanthroline-5,12-diium trifluoromethanesulfonate] | – | – | > 150 | > 150 | – | –
